The values that follow come from patent US5122448A, “Assay of anti-Epstein-Barr virus nuclear antigen antibodies with synthetic polypeptides” (Scripps Clinic and Research Foundation, priority 1990, dated 1992).

One series relates to anti-EBNA antibodies. Nature of the series: ELISA with polypeptide as solid phase antigen, anti-polypeptide activity of sera (OD405). As to conditions: for Reaction of VCA+ sera with polypeptide: clinically normal VCA+ individuals, two dilutions; for Reaction of VCA- sera with polypeptide: panel of 19 VCA- sera; for Number of anti-EBNA positive sera positive against (bound to) polypeptide: 91 ACIF anti-EBNA positive sera, 1:20 dilution; for Titer of PSS patients versus normals: Progressive Systemic Schlerosis patients; for OD405 × 10^3 obtained with Patient Antibodies to peptide: serum 1:20. It counts as binding, human. (In an ELISA, binding on a coated surface is turned into a signal by an enzyme label.)

The nature of series [1]: Circular dichroism spectroscopy. It counts as physicochemical. As to conditions: 1 mg/ml in phosphate buffered saline. As for the experimental part:
The conformational properties of the polypeptides were investigated to elucidate any secondary structure that might be necessary for polypeptide immunoreaction with human anti-EBNA antibodies. The polypeptides were dissolved at a concentration of 1 mg/ml in phosphate-buffered saline (PBS). Spectra were taken using 1 ml samples in a Cary 61 spectropolarimeter (Cary Instruments, Applied Physics Corp., Monrovia, Calif.) interfaced and automated with a Digital Equipment Corporation 11/02 computer (Digital Equipment Corporation, Maynard, Mass.).

Series [2] has as its system rabbit anti-polypeptide antibody to polypeptide P62. The experiment in a line: Competition ELISA with rabbit anti-polypeptide P62 antibody on solid phase P62. As to conditions: antibody first incubated with competing polypeptide. It counts as binding. How it is done: Anti-peptide antibody binding and inhibition studies were carried out by an enzyme-linked immunosorbent assay (ELISA) as described below.
Contact between the wells and antigen-containing solution was maintained for a predetermined time, typically 15 minutes, and at 20 degrees C., to form an antigen-coated solid phase. The solid and liquid phases were separated and the wells were washed three times with BBS.
Rabbit and human sera (body sample aliquots) were assayed for anti-polypeptide activity by adding 100 microliters of a serum diluted 1:20 in BBS per well to form a solid/liquid phase composition. Contact between the diluted sera and the antigen-coated solid phase was maintained for a predetermined time such as 1 hour, and at 20 degrees C., for an immunoreactant to form. The solid and liquid phases were separated, and the solid phase; i.e., antigen-coated, immunoreactant-containing wells, was then washed three times with BBS.

Residues, ends and D or L forms follow the SMILES beside them.

Description for anti-EBNA antibodies: Briefly, microtiter wells (Costar, #3590, Cambridge, MA) were typically coated with individual polypeptides as antigens by adding 100 microliters (ul) of BBS [10 millimoler (mM) sodium borate (pH 8.3), 150 mM NaCl] containing polypeptide at a concentration of 10 micrograms per milliliter (ug/ml). Contact between the wells and antigen-containing solution was maintained for a predetermined time, typically 15 minutes, and at 20 degrees C., to form an antigen-coated solid phase. The solid and liquid phases were separated and the wells were washed three times with BBS.
Non-specific binding sites were blocked by admixing 200 microliters of 1% bovine serum albumin (BSA) in each well to form another solid/liquid phase admixture, and maintaining that solid/liquid phase admixture for 30 minutes, at 20 degrees C. The phases were separated and excess, unbound BSA was removed by washing three times with BBS.
The antibodies in human sera that immunoreacted with an adsored polypeptide were detected using an indicating means comprising alkaline phosphatase-conjugated goat anti-human Ig antibody (Tago, Burlington, Calif.). The antibodies in rabbit sera that immunoreacted with an adsorbed polypeptide were detected using an indicating means comprising alkaline phosphatase-conjugated goat anti-rabbit Ig antibody (Kirkegard & Perry Laboratories, Inc., Gaithersburg, MD). In either instance, 100 microliters of the indicating antibody diluted 1:300 in BBS were added per well to form a further solid/liquid phase composition. This solid-liquid phase composition was maintained for a predetermined time, one hour, for the formation of a reaction product between the human antibodies bound to the solid phase and the indicating means, and at 20 degrees C. The phases were separated, and the solid phase was washed 3 times with BBS.
Alkaline phosphatase-conjugated antibody bound to polypeptide specific antibody was detected by spectrophotometrically measuring the enzymatic hydrolysis of p-nitrophenyl phosphate to p-nitrophenol. Briefly, 100 microliters of p-nitrophenyl phosphate [1 milligram per milliliter in 2 mM MgCl 2, (pH 9.8), 50 mM sodium carbonate] were added to each well. The enzymatic reaction was allowed to proceed 1 hour and then the optical density at 405 nm was determined in a [sequence] spectrophotometer available from Flow Laboratories, Inglewood, Calif.

`CC[C@H](C)[C@H](N)C(=O)N[C@@H](CCSC)C(=O)N[C@@H](CO)C(=O)N[C@@H](CC(=O)O)C(=O)N[C@@H](CCC(=O)O)C(=O)NCC(=O)N1CCC[C@H]1C(=O)NCC(=O)N[C@H](C(=O)NCC(=O)N[C@@H](CC(N)=O)C(=O)NCC(=O)N[C@@H](CC(C)C)C(=O)NCC(=O)N[C@@H](CCC(=O)O)C(=O)O)[C@@H](C)O` [Polypeptide F12, H--Ile--Met--Ser--Asp--Glu--Gly--Pro--Gly--Thr--Gly--Asn--Gly--Leu--Gly--Glu--OH] (H-IMSDEGPGTGNGLGE-OH): in the series with anti-EBNA antibodies, the “Reaction of VCA+ sera with polypeptide” value is on record as “all of the VCA^+ individuals were positive” and the “Reaction of VCA- sera with polypeptide” value is “None of the VCA^- sera were found to react positively”. Also, the “Conformation by circular dichroism spectrum” value (“Conformation” below) in series [1] is listed as “partial assumption of such conformation”.
Regarding `C[C@H](NC(=O)CNC(=O)[C@@H]1CCCN1)C(=O)N1CCC[C@H]1C(=O)NCC(=O)NCC(=O)N[C@@H](CO)C(=O)NCC(=O)N[C@@H](CO)C(=O)NCC(=O)N1CCC[C@H]1C(=O)O` [Polypeptide F13, H--Pro--Gly--Ala--Pro--Gly--Gly--Ser--Gly--Ser--Gly--Pro--OH] (H-PGAPGGSGSGP-OH), in the series with anti-EBNA antibodies, the “Reaction of VCA+ sera with polypeptide” value is recorded as “all of the VCA^+ individuals were positive” and the “Reaction of VCA- sera with polypeptide” value was “None of the VCA^- sera were found to react positively”. In addition, in series [1], the “Conformation” value is recorded as “random conformation”.
As for `C[C@H](NC(=O)CNC(=O)CNC(=O)CNC(=O)[C@H](C)NC(=O)CNC(=O)[C@H](C)NC(=O)CNC(=O)CNC(=O)[C@H](C)NC(=O)CNC(=O)CNC(=O)[C@H](C)NC(=O)CNC(=O)CN)C(=O)NCC(=O)O` [Polypeptide F14, H--Gly--Gly--Ala--Gly--Gly--Ala--Gly--Gly--Ala--Gly--Ala--Gly--Gly--Gly--Ala--Gly--OH] (H-GGAGGAGGAGAGGGAG-OH), in the series on anti-EBNA antibodies, the “Number of anti-EBNA positive sera positive against (bound to) polypeptide” value (from here on “Number … (bound to) polypeptide”) is on record as 91, the “Titer of PSS patients versus normals” value is given as “relatively higher average titer”, the “Reaction of VCA+ sera with polypeptide” value is on record as “all of the VCA^+ individuals were positive” and the “Reaction of VCA- sera with polypeptide” value is on record as “None of the VCA^- sera were found to react positively”. Further, in series [1], the “Conformation” value is “very similar spectra”.
The matching figures for `C[C@H](NC(=O)CN)C(=O)NCC(=O)NCC(=O)N[C@@H](C)C(=O)NCC(=O)N[C@@H](C)C(=O)NCC(=O)NCC(=O)NCC(=O)N[C@@H](C)C(=O)NCC(=O)NCC(=O)N[C@@H](C)C(=O)NCC(=O)NCC(=O)O` [Polypeptide F15, H--Gly--Ala--Gly--Gly--Ala--Gly--Ala--Gly--Gly--Gly--Ala--Gly--Gly--Ala--Gly--Gly--OH] (H-GAGGAGAGGGAGGAGG-OH): 91, “relatively higher average titer”, “all of the VCA^+ individuals were positive”, “None of the VCA^- sera were found to react positively” and “very similar spectra”.
Regarding `C[C@H](NC(=O)CNC(=O)CNC(=O)[C@H](C)NC(=O)CNC(=O)[C@H](C)NC(=O)CNC(=O)CNC(=O)[C@H](C)NC(=O)CNC(=O)[C@H](C)NC(=O)CNC(=O)CNC(=O)[C@H](C)NC(=O)CNC(=O)[C@H](C)NC(=O)CNC(=O)CN)C(=O)NCC(=O)N[C@@H](C)C(=O)NCC(=O)O` [Polypeptide F16, H--Gly--Gly--Ala--Gly--Ala--Gly--Gly--Ala--Gly--Ala--Gly--Gly--Ala--Gly--Ala--Gly--Gly--Ala--Gly--Ala--Gly--OH] (H-GGAGAGGAGAGGAGAGGAGAG-OH), in the series with anti-EBNA antibodies, the “Number … (bound to) polypeptide” value was determined as 91, the “Titer of PSS patients versus normals” value was “relatively higher average titer”, the “Reaction of VCA+ sera with polypeptide” value was “all of the VCA^+ individuals were positive” and the “Reaction of VCA- sera with polypeptide” value is on record as “None of the VCA^- sera were found to react positively”.
On to `C[C@H](NC(=O)CNC(=O)CNC(=O)[C@H](C)NC(=O)CNC(=O)[C@H](C)NC(=O)CNC(=O)[C@H](C)NC(=O)CNC(=O)[C@@H](NC(=O)CNC(=O)CNC(=O)[C@H](Cc1c[nH]cn1)NC(=O)[C@@H](NC(=O)CNC(=O)[C@@H](N)CCCCN)[C@@H](C)O)[C@@H](C)O)C(=O)NCC(=O)N[C@@H](C)C(=O)NCC(=O)O` [Polypeptide P27, H--Lys--Gly--Thr--His--Gly--Gly--Thr--Gly--Ala--Gly--Ala--Gly--Ala--Gly--Gly--Ala--Gly--Ala--Gly--OH] (H-KGTHGGTGAGAGAGGAGAG-OH), for which the “Number … (bound to) polypeptide” value in the series on anti-EBNA antibodies was 91. Moreover, in the series with anti-EBNA antibodies, the “Titer of PSS patients versus normals” value is given as “relatively higher average titer”. The “Reaction of VCA+ sera with polypeptide” value with anti-EBNA antibodies was “all of the VCA^+ individuals were positive”. In addition, the “Reaction of VCA- sera with polypeptide” value in the series with anti-EBNA antibodies is listed as “None of the VCA^- sera were found to react positively”. In addition, the “OD405 × 10^3 obtained with Patient Antibodies to peptide” value (“OD405 × 10^3 obtained” below) in the series on anti-EBNA antibodies (MV post-mononucleosis) is recorded as 107 OD405 × 10^3; with anti-EBNA antibodies (MV pre-mononucleosis), 15 OD405 × 10^3; in the series with anti-EBNA antibodies (SB post-mononucleosis), 33 OD405 × 10^3; with anti-EBNA antibodies (SB pre-mononucleosis), 11 OD405 × 10^3; in the series with anti-EBNA antibodies (VCA+ Normal 1), 155 OD405 × 10^3; in the series on anti-EBNA antibodies (VCA+ Normal 2) it was 516 OD405 × 10^3. The “OD405 × 10^3 obtained” value with anti-EBNA antibodies (VCA- Normals (n = 27), average ± one standard deviation) came out at 67 ± 23 OD405 × 10^3. Also, the “Inhibition of binding of anti-polypeptide P62 to polypeptide P62 in the solid phase” value in series [2] amounted to 36%. For the same compound, in series [1], the “Conformation” value is reported as “very similar spectra”.
On to `CSCC[C@H](NC(=O)[C@@H]1CCCN1C(=O)[C@H](CCCNC(=N)N)NC(=O)[C@H](CCCCN)NC(=O)[C@H](CCC(=O)O)NC(=O)CNC(=O)[C@H](CCCNC(=N)N)NC(=O)CNC(=O)[C@H](CCCNC(=N)N)NC(=O)CNC(=O)[C@H](CCCNC(=N)N)NC(=O)CNC(=O)[C@H](CCCNC(=N)N)NC(=O)[C@H](C)NC(=O)[C@@H](N)CCCNC(=N)N)C(=O)O` [Polypeptide P89, H--Arg--Ala--Arg--Gly--Arg--Gly--Arg--Gly--Arg--Gly--Glu--Lys--Arg--Pro--Met--OH] (H-RARGRGRGRGEKRPM-OH), for which the “OD405 × 10^3 obtained” value stood at 25 OD405 × 10^3 in the series on anti-EBNA antibodies (MV post-mononucleosis); 29 OD405 × 10^3 with anti-EBNA antibodies (MV pre-mononucleosis); 23 OD405 × 10^3 in the series with anti-EBNA antibodies (SB post-mononucleosis); 9 OD405 × 10^3 with anti-EBNA antibodies (SB pre-mononucleosis); 23 OD405 × 10^3 in the series on anti-EBNA antibodies (VCA+ Normal 1); 16 OD405 × 10^3 with anti-EBNA antibodies (VCA+ Normal 2).
